Values quoted from earlier work as cited in patent US9609876B2, “Antimicrobial compositions” (priority 2012, dated 2017).

Legend:
[1] = in vivo

pH range in which it is stable and maintains its antimicrobial activity	SMILES	LD50 [1] [mg/kg]
3-7	CCCCCCCCCCCC(=O)N[C@@H](CCCNC(=N)N)C(=O)OCC.Cl [LAE, N^α-lauroyl-L-arginine ethyl ester monohydrochloride]	–
–	CC(=O)CCC(=O)O [Levulinic acid]	1850
